In patent publication US20260200849A1, “CATIONIC LIPIDS AND PREPARATION METHOD THEREOF” (RiboX Therapeutics HK Limited, priority 2024, published 2026):

Assays:
Balb/c mice = test: In vivo expression by IV, 0.05 mg/kg luciferase RNA-LNPs, IVIS luminescence; settings: Formulation No. 001, RNA No. 331; female Balb/c mice, 0.05 mg*kg−1 intravenous, 24-hours post injection
Experimental: (§1) 7-8 week old, female Balb/c mice (N=3) were injected with 0.05 mg*kg−1 of RNA-LNPs encoding for firefly-luciferase by intravenous injection. At 24- and 72-hours post injection, animals were intraperitoneally injected with 15 mg/mi of Luciferin substrate and whole-body luminescence was determined by a bioluminescent in vivo imaging system (IVIS).
as §1, with “24-hours” for “24- and 72-hours”, “mg/ml” for “mg/mi”, “whole-body/liver/spleen” for “whole-body”

MCP-1 = test: In vivo tolerability by IV: serum MCP-1 by Luminex; design: species or system C57BL/6J mice; settings: Formulation No. 001, RNA No. 331, male C57BL/6J mice, 1.0 mg*kg/1 intravenous; for MCP-1 at 2 h: 2 hours post injection; for MCP-1 at 24 h: 24 hours post injection
Experimental: (§2) 6-8 week old, male C57BL/6J mice (N=3) were injected with 1.0 mg*kg/1 of RNA-LNPs encoding for firefly-luciferase by intravenous injection. At 2- and 24-hours post injection, about 40 μL blood was harvested and immediately added to the procoagulant containing tube. Stand for 30 min at room temperature and then centrifuged at 2500 g×10 min to obtain serum. About 15 μL serum samples were aliquoted for cytokine (MCP-1 and IL-6) detection by Luminex (ProcartaPlex Mouse 2-plex, Thermo). PBS group as negative control.
as §2, with “mg*kg−1” for “mg*kg/1”

Hep G2 cells [1] = test: In vitro expression: luciferase activity in Hep G2 cells transfected with RNA-LNPs; format: cell-based; settings: Formulation No. 001, RNA No. 331 (firefly-luciferase), 100 ng/mL RNA-LNPs, 72 hours post transfection
Experimental: 2E5 Hep G2 cells were transfected with 100 ng/mL of RNA-LNPs encoding for firefly-luciferase. At 72 hours post transfection, the cells were washed and lysed. The luciferase expression (2-well repeat) was determined in the cell lysates with the luciferase assay reagent kit (Promega), according to the kit protocol, luciferase activity was measured by a luminometer.

Hep G2 cells [2] = test: In vitro toxicity: Hep G2 cell viability by CellTiter-Glo; format: cell-based; settings: Formulation No. 001, RNA No. 331, 1 μg/mL RNA-LNPs, 72 hours post transfection, cell only = 100%
Experimental: 2E5 Hep G2 cells were transfected with 1 μg/mL RNA-LNPs. At 72 hours post transfection, cell viability (2-well repeat) was determined with the CellTiter-Glo® reagent kit, according to the kit protocol, measured by a luminometer. Cell only as control (100%).
The cell viability was calculated according to the following formula: […]

C57BL/6J mice = test: In vivo expression by IV, 1.0 mg/kg luciferase RNA-LNPs, whole-body and organ IVIS luminescence; settings: Formulation No. 001, RNA No. 331; male C57BL/6J mice, 1.0 mg*kg−1 intravenous, 24-hours post injection
Experimental: (§3) 6-8 week old, male C57BL/6J mice (N=3) were injected with 1.0 mg*kg−1 of RNA-LNPs encoding for firefly-luciferase by intravenous injection. At 24-hours post injection, animals were intraperitoneally injected with 15 mg/ml of Luciferin substrate and whole-body/liver/spleen/kidney/small intestine/large intestine luminescence were determined by a bioluminescent in vivo imaging system (IVIS).
as §3, with “mg/nil” for “mg/ml”

[3] = RNA encapsulation efficacy (EE %) by Quant-IT Ribogreen kit; format: physicochemical; settings: LNP, Formulation No. 001, RNA No. 331
Experimental: (§4) The LNP size and polydispersity index (PDI), determined by dynamic light scattering (DLS), and zeta potential were measured by a Zetasizer machine (Malvern). RNA concentration and encapsulation efficacy (EE %) were analyzed by the Quant-IT Ribogreen kit by calculating the percentage encapsulation at 100%—(RNA-LNPs/RNA-LNPs with Triton X-100).

IL-6 = test: In vivo tolerability by IV: serum IL-6 by Luminex; design: species or system C57BL/6J mice; settings: Formulation No. 001, RNA No. 331, male C57BL/6J mice, 1.0 mg*kg/1 intravenous; for IL-6 at 2 h: 2 hours post injection; for IL-6 at 24 h: 24 hours post injection
Experimental: as §2
as §2, with “mg*kg−1” for “mg*kg/1”

[4] = LNP size and polydispersity index (PDI) by dynamic light scattering (Zetasizer); format: physicochemical; settings: for Size (nm): Formulation No. 001 (Ionizable lipid:DSPC:cholesterol:DMG-PEG2000 = 50:10:38.5:1.5, N/P 6), RNA No. 331; for PDI: Formulation No. 001, RNA No. 331
Experimental: as §4

SMILES	Liver (p/s) (Mean) (Balb/c mice)	Spleen (p/s) (Mean) (Balb/c mice)	Whole body (p/s) (Mean) (Balb/c mice)	MCP-1 at 2 h (MCP-1)	MCP-1 at 24 h (MCP-1)	In vitro Expression (Mean) (Hep G2 cells [1])	In vitro cell viability (%) (Mean) (Hep G2 cells [2])	Kidney (p/s) (C57BL/6J mice)	Large intestine (p/s) (C57BL/6J mice)	Liver (p/s) (C57BL/6J mice)	Small intestine (p/s) (C57BL/6J mice)	Spleen (p/s) (C57BL/6J mice)	Whole body (p/s) (C57BL/6J mice)	EE (%) [3]	IL-6 at 2 h (IL-6)	IL-6 at 24 h (IL-6)	Size (nm) [4]	PDI [4]
CCCCCCCC/C=C\CCCCCCCC(=O)NC(COC(=O)NCCN1CCCCC1)C(=O)OCCCCCCCC(=O)OC(CCCCCCCC)CCCCCCCC (centres unmarked) [Lipid 736]	2.87E+08 p/s	1.39E+08 p/s	2.08E+09 p/s	3830 pg/mL	260 pg/mL	7.05E+05	73.49%	5.22E+07 p/s	1.78E+08 p/s	2.87E+09 p/s	6.48E+08 p/s	3.38E+08 p/s	5.28E+09 p/s	91.61%	442 pg/mL	3.03 pg/mL	66.29 nm	0.01
CCCCCCCC/C=C\CCCCCCCC(=O)NC(COC(=O)NCCN1CCCCC1)C(=O)OCCCCCC(=O)OCC(CCCCCCCC)CCCCCCCCCC (centres unmarked) [Lipid 792]	2.90E+08 p/s	1.01E+08 p/s	2.18E+09 p/s	1620 pg/mL	216 pg/mL	8.10E+05	81.74%	3.20E+07 p/s	8.04E+07 p/s	2.74E+09 p/s	5.01E+08 p/s	3.20E+08 p/s	2.76E+09 p/s	92.11%	25.9 pg/mL	6.86 pg/mL	64.18 nm	0.02
CCCCC/C=C\C/C=C\CCCCCCCCOC(=O)NC(COC(=O)NCCN1CCCCCC1)C(=O)OCCCCCCCC(=O)OC(CCCCCCCC)CCCCCCCC (centres unmarked) [Lipid 858]	3.71E+08 p/s	6.61E+07 p/s	8.74E+08 p/s	1360 pg/mL	111 pg/mL	2.88E+05	92.44%	2.31E+07 p/s	1.58E+08 p/s	8.64E+08 p/s	6.45E+08 p/s	2.33E+08 p/s	1.92E+09 p/s	91.60%	23 pg/mL	3.13 pg/mL	63.50 nm	0.04
CCCCC/C=C\C/C=C\CCCCCCCCOC(=O)NC(COC(=O)NCCN1CCCCCC1)C(=O)OCCCCCCCCOC(=O)C(CCCCCC)CCCCCCCC (centres unmarked) [Lipid 881]	2.25E+08 p/s	6.14E+07 p/s	1.18E+09 p/s	1190 pg/mL	253 pg/mL	4.02E+05	86.94%	4.26E+07 p/s	1.30E+08 p/s	1.65E+09 p/s	8.57E+08 p/s	2.37E+08 p/s	2.92E+09 p/s	90.26%	12.8 pg/mL	6.69 pg/mL	61.73 nm	0.02
CCCCCCCCC(CCCCCC)C(=O)OCCCCCCCCOC(=O)NC(COC(=O)NCCN(C)C)C(=O)OCCCCCCCCOC(=O)C(CCCCCC)CCCCCCCC (centres unmarked) [Lipid 883]	1.59E+08 p/s	2.09E+07 p/s	1.60E+09 p/s	1860 pg/mL	220 pg/mL	2.82E+05	93.23%	6.37E+06 p/s	3.50E+07 p/s	3.22E+09 p/s	1.46E+08 p/s	2.19E+08 p/s	1.65E+09 p/s	96.96%	16.4 pg/mL	5.01 pg/mL	69.88 nm	0.05
CCCCCCCCC(CCCCCCCC)OC(=O)CCCCCCCOC(=O)C(COC(=O)NCCN1CCCCCC1)NC(=O)OCCCCCCCCOC(=O)C(CCCCCC)CCCCCCCC (centres unmarked) [Lipid 897]	1.67E+08 p/s	7.67E+07 p/s	8.36E+08 p/s	–	–	1.77E+05	88.39%	–	–	–	–	–	–	95.30%	–	–	60.19 nm	0.04
CCCCC/C=C\C/C=C\CCCCCCCCOC(=O)NC(COC(=O)NCCN1CCCC1)C(=O)OCCCCCC(=O)OCC(CCCCCCCC)CCCCCCCCCC (centres unmarked) [Lipid 909]	7.57E+07 p/s	2.35E+07 p/s	7.25E+08 p/s	–	–	7.29E+04	94.80%	–	–	–	–	–	–	98.41%	–	–	74.26 nm	0.02
CCCCCCCCCCCOC(=O)NC(COC(=O)NCCN(C)C)C(=O)OCCCCCCCC(=O)OC(CCCCCCCC)CCCCCCCC (centres unmarked) [Lipid 912]	1.67E+07 p/s	7.97E+06 p/s	8.26E+07 p/s	–	–	4.57E+04	92.96%	–	–	–	–	–	–	97.83%	–	–	74.18 nm	0.03
CCCCCCCCCC(=O)OCCCCCCCOC(=O)C(COC(=O)NCCN(C)C)NC(=O)OCCCCCCCCOC(=O)C(CCCCCC)CCCCCCCC (centres unmarked) [Lipid 930]	3.49E+07 p/s	6.28E+06 p/s	1.31E+08 p/s	–	–	8.27E+03	92.08%	–	–	–	–	–	–	97.46%	–	–	92.24 nm	0.04
